# Measured values published in ChEMBL document CHEMBL2057121, “Selective non-lipid modulator of LPA5 activity in human platelets” (Bioorg Med Chem Lett, 2012).
# Tests used:
# [1] = target: Lysophosphatidic acid receptor 1/3 (Homo sapiens, UniProt Q9UBY5+Q92633); assay: Antagonist activity at LPA1/3 receptor in human isolated platelets assessed as inhibition of collagen-induced platelet aggregation after 3 mins; format: functional
# [2] = target: Lysophosphatidic acid receptor 5 (Homo sapiens, UniProt Q9H1C0); assay: Antagonist activity at human recombinant LPA5 receptor expressed in rat RH7777 cells assessed as inhibition of hexadecyl-LPA-induced effect; format: functional, cell-based
# Lysophosphatidic acid receptor 5, sequence (Q9H1C0 whole entry): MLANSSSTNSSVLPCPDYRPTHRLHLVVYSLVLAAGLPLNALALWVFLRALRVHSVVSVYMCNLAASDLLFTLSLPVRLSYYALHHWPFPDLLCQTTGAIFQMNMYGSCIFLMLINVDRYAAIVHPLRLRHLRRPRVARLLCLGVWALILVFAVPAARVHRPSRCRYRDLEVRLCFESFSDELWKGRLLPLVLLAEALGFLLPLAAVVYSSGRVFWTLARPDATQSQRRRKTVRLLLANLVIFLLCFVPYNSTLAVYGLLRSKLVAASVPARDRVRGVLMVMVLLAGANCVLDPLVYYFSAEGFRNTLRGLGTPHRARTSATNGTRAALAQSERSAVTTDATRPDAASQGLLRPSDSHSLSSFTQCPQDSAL
smiles,measurement,setting,value
COc1cccc(-n2nc(C(=O)O)cc2-c2ccc(C3CCCCC3)c(Cl)c2)c1,IC50,[1],> 10 µM
same,IC50,[2],0.8 µM
